From ChEMBL document CHEMBL4052703, “Cyclic tetrapeptide HDAC inhibitors as potential therapeutics for spinal muscular atrophy: Screening with iPSC-derived neuronal cells” (Bioorg Med Chem Lett, 2017) come the findings set out here.

For series [1], the species on record is Homo sapiens. The series is described as follows: Increase in SMN2 mRNA expression in induced pluripotent stem cell derived from human GM03813 cells isolated from SMA patient homozygous for deletion of exons 7 and 8 in SMN1 gene and containing 3 SMN2 gene copies at 0.1 uM by PCR assay relative to untreated control.
For series [2], the species on record is Homo sapiens. The series is described as follows: Increase in SMN2 mRNA expression in induced pluripotent stem cell derived from human GM03813 cells isolated from SMA patient homozygous for deletion of exons 7 and 8 in SMN1 gene and containing 3 SMN2 gene copies at 1 uM by PCR assay relative to untreated control.
A further series addresses Histone deacetylase 2 (Homo sapiens, UniProt Q92769). The experiment in a line: Inhibition of HDAC2 (unknown origin).
In series [3] the target is T1, Protein deacetylase HDAC6 (Homo sapiens, UniProt Q9UBN7).
T1 sequence (Q9UBN7 whole entry): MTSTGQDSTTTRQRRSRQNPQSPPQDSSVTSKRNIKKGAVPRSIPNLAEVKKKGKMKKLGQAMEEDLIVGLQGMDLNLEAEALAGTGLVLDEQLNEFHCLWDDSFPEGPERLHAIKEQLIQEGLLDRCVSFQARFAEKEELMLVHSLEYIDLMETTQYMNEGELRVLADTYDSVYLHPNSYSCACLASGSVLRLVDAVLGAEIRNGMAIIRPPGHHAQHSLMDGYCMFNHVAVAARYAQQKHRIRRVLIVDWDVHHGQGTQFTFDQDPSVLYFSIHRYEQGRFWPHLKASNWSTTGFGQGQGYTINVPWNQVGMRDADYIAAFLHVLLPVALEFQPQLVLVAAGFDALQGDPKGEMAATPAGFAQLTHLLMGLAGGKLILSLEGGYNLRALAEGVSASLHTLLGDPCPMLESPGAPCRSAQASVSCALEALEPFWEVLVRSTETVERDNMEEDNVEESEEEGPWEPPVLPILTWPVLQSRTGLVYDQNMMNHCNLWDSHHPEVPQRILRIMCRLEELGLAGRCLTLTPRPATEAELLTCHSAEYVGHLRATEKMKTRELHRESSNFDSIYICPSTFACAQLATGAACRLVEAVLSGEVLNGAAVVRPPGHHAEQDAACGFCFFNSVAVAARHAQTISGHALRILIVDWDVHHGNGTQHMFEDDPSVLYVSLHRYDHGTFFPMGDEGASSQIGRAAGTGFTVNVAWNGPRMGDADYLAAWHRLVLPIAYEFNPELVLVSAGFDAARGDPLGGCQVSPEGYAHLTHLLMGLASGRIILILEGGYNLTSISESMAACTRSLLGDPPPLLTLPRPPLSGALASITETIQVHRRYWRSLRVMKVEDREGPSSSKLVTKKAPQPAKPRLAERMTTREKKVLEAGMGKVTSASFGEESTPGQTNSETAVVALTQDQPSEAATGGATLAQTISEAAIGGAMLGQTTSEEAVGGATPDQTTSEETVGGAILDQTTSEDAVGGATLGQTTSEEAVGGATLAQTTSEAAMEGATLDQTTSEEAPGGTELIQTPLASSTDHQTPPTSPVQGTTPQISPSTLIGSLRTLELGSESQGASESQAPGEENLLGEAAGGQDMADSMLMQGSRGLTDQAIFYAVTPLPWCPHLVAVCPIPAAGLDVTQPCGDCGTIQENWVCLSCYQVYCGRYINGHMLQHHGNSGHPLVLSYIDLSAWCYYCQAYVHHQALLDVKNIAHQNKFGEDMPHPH
The series is described as follows: Inhibition of HDAC6 (unknown origin).

For another series, the target named is T2, Histone deacetylase 8 (Homo sapiens, UniProt Q9BY41).
T2 sequence (Q9BY41 whole entry): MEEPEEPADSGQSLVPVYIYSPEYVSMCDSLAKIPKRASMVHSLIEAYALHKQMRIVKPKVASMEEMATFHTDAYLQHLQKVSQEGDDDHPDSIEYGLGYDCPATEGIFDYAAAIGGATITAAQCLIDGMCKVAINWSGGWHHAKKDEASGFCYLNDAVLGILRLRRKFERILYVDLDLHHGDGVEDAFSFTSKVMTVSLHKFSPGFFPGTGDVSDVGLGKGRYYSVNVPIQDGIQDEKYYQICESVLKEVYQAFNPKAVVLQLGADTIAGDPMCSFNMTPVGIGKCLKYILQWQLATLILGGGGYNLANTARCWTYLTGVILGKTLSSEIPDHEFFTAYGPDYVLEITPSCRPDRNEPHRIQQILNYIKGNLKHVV
The experiment in a line: Inhibition of HDAC8 (unknown origin).

Another series has as its target Histone deacetylase 3 (Homo sapiens, UniProt O15379). The series is described as follows: Inhibition of HDAC3 (unknown origin).
For series [4], the species on record is Homo sapiens. The experiment in a line: Increase in SMN2 mRNA expression in induced pluripotent stem cell derived from human GM03813 cells isolated from SMA patient homozygous for deletion of exons 7 and 8 in SMN1 gene and containing 3 SMN2 gene copies at 0.1 to 5 uM by PCR assay relative to untreated control.
A short description of series [5]: Toxicity against induced pluripotent stem cell derived from human GM03813 cells isolated from SMA patient homozygous for deletion of exons 7 and 8 in SMN1 gene and containing 3 SMN2 gene copies assessed as reduction in SMN2 protein level at 10 uM. The series is classed as cell-based. As to conditions: induced pluripotent stem cell-derived neuron.
The species named for series [6] is Homo sapiens. The experiment in a line: Increase in […] in induced pluripotent stem cell derived from human GM03813 cells isolated from SMA patient homozygous for deletion of exons 7 and 8 in SMN1 gene and containing 3 SMN2 gene copies assessed as increase in SMN protein aggregates (Gems) at 5 uM incubated for 48 hrs by confocal microscopy.

The source made the active and inactive calls. The calls are words filed in the database; no cut-off is given here. Square brackets hold non-standard residues; d marks the D form. Peptide text beside a SMILES is read from it. * marks the point of attachment. 1Nal = N[C@@H](Cc1cccc2ccccc12)C(=O)O; Asu = N[C@@H](CCCCCC(=O)O)C(=O)O; β3hL = CC(C)C[C@H](N)CC(=O)O; Nva = CCC[C@H](N)C(=O)O; NHOH = ON* A value given as a limit tells only on which side of the number the result lay.

Histone deacetylase 2, sequence (Q92769 whole entry): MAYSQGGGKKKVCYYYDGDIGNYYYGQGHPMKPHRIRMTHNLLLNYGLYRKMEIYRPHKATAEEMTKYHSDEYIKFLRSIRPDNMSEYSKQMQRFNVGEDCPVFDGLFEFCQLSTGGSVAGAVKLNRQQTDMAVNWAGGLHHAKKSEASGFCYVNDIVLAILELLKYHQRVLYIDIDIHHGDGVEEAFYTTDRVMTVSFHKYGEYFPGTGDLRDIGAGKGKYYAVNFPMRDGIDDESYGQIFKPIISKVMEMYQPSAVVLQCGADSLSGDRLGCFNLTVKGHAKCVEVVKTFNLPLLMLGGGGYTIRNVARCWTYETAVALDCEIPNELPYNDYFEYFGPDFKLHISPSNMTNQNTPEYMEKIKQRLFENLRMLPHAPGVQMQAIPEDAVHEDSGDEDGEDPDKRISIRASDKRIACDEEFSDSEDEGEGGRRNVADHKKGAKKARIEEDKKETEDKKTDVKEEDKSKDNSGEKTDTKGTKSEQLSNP
Histone deacetylase 3, sequence (O15379 whole entry): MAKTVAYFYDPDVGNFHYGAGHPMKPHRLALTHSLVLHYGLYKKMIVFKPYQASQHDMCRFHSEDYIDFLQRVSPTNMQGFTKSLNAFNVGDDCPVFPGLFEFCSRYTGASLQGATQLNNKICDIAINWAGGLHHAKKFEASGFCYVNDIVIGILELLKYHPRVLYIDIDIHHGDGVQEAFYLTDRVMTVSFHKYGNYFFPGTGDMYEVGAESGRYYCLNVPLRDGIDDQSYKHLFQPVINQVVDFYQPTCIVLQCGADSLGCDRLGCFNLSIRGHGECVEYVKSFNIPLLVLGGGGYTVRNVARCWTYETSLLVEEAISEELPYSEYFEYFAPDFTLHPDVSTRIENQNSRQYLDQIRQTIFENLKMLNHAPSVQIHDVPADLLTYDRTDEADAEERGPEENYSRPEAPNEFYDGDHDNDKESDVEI

As for `CC(C)C[C@H]1CC(=O)N[C@@H](CCCCN)C(=O)N[C@@H](CCCCCC(=O)O)C(=O)N[C@@H](Cc2cccc3ccccc23)C(=O)N1` (cyclo([Asu][1Nal][β3hL]K)), the fold change (FC) in the series listed under Homo sapiens [1] was 1; in the series listed under Homo sapiens [2], 0.6 to 1.1.

Take `CCC[C@@H]1NC(=O)[C@H](C)NC(=O)C[C@H](CC(C)C)NC(=O)[C@H](Cc2cn(CN(C)C)c3ccccc23)NC1=O`: the fold change (FC) in the series listed under Homo sapiens [2] lay in the range of 1.5 to 1.8.

Turning to `CC(C)C[C@H]1CC(=O)N[C@@H](C)C(=O)N[C@@H](CCCCCC(=O)C(F)(F)F)C(=O)N[C@@H](Cc2c[nH]c3ccccc23)C(=O)N1`, the fold change (FC) was in the range of 1.2 to 1.3 in the series filed under Homo sapiens [1] and 2.1 to 2.4 in the series listed under Homo sapiens [2]. The IC50 against Histone deacetylase 2 was determined as 32 nM; in series [3], 2800 nM.

In the case of `CCC(=O)CCCCC[C@@H]1NC(=O)[C@@H]2CCCN2C(=O)C[C@H](CC(C)C)NC(=O)[C@H](Cc2c[nH]c3ccccc23)NC1=O`, the results for the fold change (FC) in the series listed under Homo sapiens [1] and in the series listed under Homo sapiens [2] were 1 to 1.4 and 1.2 to 2, respectively. For the same compound, the concentration for half-maximal inhibition (IC50) on Histone deacetylase 2 worked out at 40 nM; at Histone deacetylase 8, 1500 nM.

Consider `CC(C)C[C@H]1CC(=O)N[C@@H](Cc2ccccc2)C(=O)N[C@@H](CCCCCC(=O)NO)C(=O)N[C@@H](Cc2c[nH]c3ccccc23)C(=O)N1` (cyclo([Asu](NHOH)W[β3hL]F)), for which the fold change (FC) in the series listed under Homo sapiens [1] is 1 to 1.5; in the series listed under Homo sapiens [2], 2.7 to 3.6.

`CC(C)C[C@H]1CC(=O)N[C@@H](C)C(=O)N[C@@H](CCCCCC(=O)O)C(=O)N[C@@H](Cc2cccc3ccccc23)C(=O)N1` (cyclo([Asu][1Nal][β3hL]A)): the fold change (FC) in the series listed under Homo sapiens [1] is 1.1 to 1.6; in the series filed under Homo sapiens [2], 1.4 to 1.5.

Regarding `CCC(=O)CCCCC[C@@H]1NC(=O)[C@H](Cc2ccccc2)NC(=O)C[C@H](CC(C)C)NC(=O)[C@H](Cc2c[nH]c3ccccc23)NC1=O`, the fold change (FC) in the series filed under Homo sapiens [1] lay in the range of 0.6 to 1; in the series filed under Homo sapiens [2], 0.8 to 1.4.

Regarding `CC(C)C[C@H]1CC(=O)N[C@@H](C)C(=O)N[C@@H](CCCCCC(=O)NO)C(=O)N[C@@H](Cc2c[nH]c3ccccc23)C(=O)N1` (cyclo([Asu](NHOH)W[β3hL]A)), the fold change (FC) was in the range of 1.4 to 2.2 in the series filed under Homo sapiens [1] and 2 to 3 in the series listed under Homo sapiens [2]. Also, on Histone deacetylase 2, half-maximal inhibition (IC50) was put at 5 nM.

For the compound `CCC[C@@H]1NC(=O)[C@H](C)NC(=O)C[C@H](CC(C)C)NC(=O)[C@H](Cc2c[nH]c3ccccc23)NC1=O` (cyclo(A[Nva]W[β3hL])), the fold change (FC) in the series filed under Homo sapiens [2] lay in the range of 0.7 to 0.8. Moreover, the IC50 was found to be 1580 nM at Histone deacetylase 2 and 1440 nM at Histone deacetylase 3.

Turning to `CCC(=O)CCCCC[C@@H]1NC(=O)[C@H](CCCCNC(C)=O)NC(=O)C[C@H](CC(C)C)NC(=O)[C@H](Cc2c[nH]c3ccccc23)NC1=O`, the fold change (FC) in the series filed under Homo sapiens [1] is 1 to 1.5; in the series listed under Homo sapiens [2], 2.7 to 3.2. In addition, in [3], the IC50 is more than 10000 nM. In addition, the Activity result in the series listed under Homo sapiens [4] is “Dose-dependent effect”; in series [5], “Toxic”. For the same compound, in the series listed under Homo sapiens [6], the outcome was Active.

Consider `CCC(=O)CCCCC[C@@H]1NC(=O)[C@H](C)NC(=O)C[C@H](CC(C)C)NC(=O)[C@H](Cc2cccc3ccccc23)NC1=O`, for which, in the series listed under Homo sapiens [2], the fold change (FC) fell in the range of 0.6 to 0.8.

In the case of `CCC(=O)CCCCC[C@@H]1NC(=O)[C@@H](C)n2nncc2[C@H](CC(C)C)NC(=O)[C@H](Cc2c[nH]c3ccccc23)NC1=O`, the fold change (FC) in the series filed under Homo sapiens [1] was 0.9; in the series listed under Homo sapiens [2], 0.9 to 1.1. Moreover, on Histone deacetylase 8, the IC50 is 110 nM.
